Data taken from US7053055B2, “Compounds of unstable DP IV-inhibitors” (priority 1998, dated 2006).

What was measured:
[1] = Intramolecular cyclisation (stability) in 0.1 M HEPES buffer quantified by UV spectrometry; assay type: physicochemical; details: pH=7.6, 25° C.; for k (rate constant of intramolecular cyclisation): UV spectrometry
Procedure: The cyclisation reaction was monitored over a period of 40 minutes. The formation of the double bond system of the pyrazine, which takes place during the intramolecular reaction, enables quantitative analysis of the cyclisation process by means of UV spectrometry (FIG. 4). The rate constants determined there from for the intramolecular cyclisation of unstable DP IV-inhibitors in 0.1 M HEPES buffer, pH=7.6, 25° C., are shown in Table 1.

[2] = Intramolecular cyclisation in aqueous buffer solution monitored by MALDI-TOF mass spectrometry; assay type: physicochemical; details: aqueous buffer solution pH=7.6, MALDI-TOF MS
Text: The products of that reaction are the respective pyrazine derivatives (FIG. 1).

DP IV [3] = biological target: T1, DP IV (Homo sapiens, UniProt P27487); assay: Stability and DP IV-catalysed cleavage of the masked compound, MALDI-TOF mass spectrum of incubation batch; assay type: biochemical
Procedure: (§1) The active DP IV-inhibitor H-Val-Pro-CH2—(N^+C5H5) is released only as a result of the addition of the DP IV enzyme (used here by way of example also to release the DP IV-inhibitor) with removal of the N-terminal dipeptide H-Gly-Pro-OH. Accordingly, in the mass spectrum (FIG. 7) markedly more than 50% of the incubated compound according to the invention can be detected even after an incubation period of 60 minutes.

DP IV [4] = biological target: T1, DP IV; assay: DP IV-catalysed hydrolysis of H-Gly-Pro-pNA in the presence of inhibitor (progress curves); assay type: biochemical
Procedure: When the DP IV target enzyme is incubated with unstable inhibitors in the presence of a substrate, inhibition of the enzyme is observed initially; the inhibition subsides again as the experimental time progresses as a result of the intramolecular cyclisation of the inhibitor which takes place in parallel, since the concentration of the inhibitor in the reaction solution decreases as a result of the spontaneously occurring chemical reaction. Because of the time-dependent drop in the concentration of the inhibitor, the rate of the enzyme-catalysed hydrolysis of the substrate increases again as time progresses.
as §1

T1 sequence (P27487 whole entry): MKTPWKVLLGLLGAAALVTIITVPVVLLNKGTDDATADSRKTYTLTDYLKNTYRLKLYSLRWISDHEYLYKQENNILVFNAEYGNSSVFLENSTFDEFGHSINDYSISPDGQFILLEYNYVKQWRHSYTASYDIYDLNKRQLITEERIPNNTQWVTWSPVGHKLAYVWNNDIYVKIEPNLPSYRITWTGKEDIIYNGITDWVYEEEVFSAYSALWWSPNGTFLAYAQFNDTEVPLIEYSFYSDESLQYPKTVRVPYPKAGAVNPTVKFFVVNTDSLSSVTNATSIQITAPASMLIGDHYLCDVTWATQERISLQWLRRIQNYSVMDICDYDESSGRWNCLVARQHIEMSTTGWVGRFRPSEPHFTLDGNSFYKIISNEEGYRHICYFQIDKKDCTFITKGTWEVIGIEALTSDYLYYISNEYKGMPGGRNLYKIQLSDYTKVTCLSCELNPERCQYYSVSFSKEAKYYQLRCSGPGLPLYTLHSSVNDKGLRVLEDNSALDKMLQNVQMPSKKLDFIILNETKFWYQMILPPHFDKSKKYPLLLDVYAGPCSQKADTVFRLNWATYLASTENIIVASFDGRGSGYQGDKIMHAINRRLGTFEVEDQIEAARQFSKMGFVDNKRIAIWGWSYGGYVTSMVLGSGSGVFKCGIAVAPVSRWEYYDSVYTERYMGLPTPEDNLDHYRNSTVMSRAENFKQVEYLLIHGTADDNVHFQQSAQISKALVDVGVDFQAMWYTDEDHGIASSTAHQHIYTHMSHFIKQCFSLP

SMILES | half-life [1] [min] | k (rate constant of intramolecular cyclisation) [1] [min⁻¹] | Period within which breakdown to the cyclic pyrazine derivative is completed quantitatively [2] [min] | Incubated compound still detectable in mass spectrum (DP IV [3]; incubation with 0.06 μg/ml DP IV, 0.1 M HEPES pH=7.6, 30° C., after 60 minutes) | Stability in buffered aqueous solution in the absence of an enzyme (DP IV [3]; over a period of 24 hours) | Duration of DP IV-inhibitory activity compared with the unstable DP IV-inhibitors (DP IV [4]; 2.6×10^−5 mol/litre compound, FIG. 8) | Inhibition of the target enzyme DP IV (DP IV [4]; substrate H-Gly-Pro-pNA, 0.06 μg/ml DP IV, 0.1 M HEPES pH=7.6, 30° C.)
NC(Cc1ccccc1)C(=O)N1CCCC1C(=O)C[n+]1ccccc1.[Cl-] (stereo not drawn) [H-Phe-Pro-CH2-(N^+C5H5), H-Phe-Pro-CH2—(N^+C5H5)/C1^−] | 9.6 | 0.0012 | ≤ 30 | – | – | – | –
CC(C)C(N)C(=O)N1CCCC1C(=O)C[n+]1ccccc1.[Cl-] (stereo not drawn) [H-Val-Pro-CH2-(N^+C5H5), H-Val-Pro-CH2—(N^+C5H5)/C1] | 13.3 | 0.00087 | ≤ 60 | – | – | – | –
CC(C)C(NC(=O)C1CCCN1C(=O)CN)C(=O)N1CCCC1C(=O)C[n+]1ccccc1.[Cl-] (stereo not drawn) [H-Gly-Pro-Val-Pro-CH2—(N+C5H5), H-Gly-Pro-Val-Pro-CH2—(N^+C5H5)/C1^−] | – | – | – | more than 50% | stable | markedly prolonged activity | effective inhibition of the target enzyme
